# Literature values in patent US7625410B2, “Stent device and method” (Boston Scientific Scimed, Inc., priority 2001, dated 2009).
# Columns and labels:
# [1] = test system: human and rat aortic smooth muscle cells and endothelial cell proliferation
# [2] = not given; remark: listed apart in the source
structure (smiles),measurement,setting,value
C=CC[C@@H]1/C=C(\C)C[C@H](C)C[C@H](OC)[C@H]2O[C@@](O)(C(=O)C(=O)N3CCCC[C@H]3C(=O)O[C@H](/C(C)=C/[C@@H]3CC[C@@H](O)[C@H](OC)C3)[C@H](C)[C@@H](O)CC1=O)[C@H](C)C[C@@H]2OC [tacrolimus],halflife,assumed value used for the estimate of systemic dosage,12 h
same,distribution in the blood,blood,primarily intracellular in red blood cells
same,binding in the plasma,plasma,bound to α-1 sour glycoproteins and albumins
same,antiproliferative properties on vascular cells,[1]; human and rat aortic smooth muscle cells and endothelial cells,very modest antiproliferative properties
same,transition to the secretory smooth muscle cell type,"[1]; smooth muscle cells, type responsible for the restenosis build up",practically totally inhibited
same,solubility in organic solvents,"[2]; chloroform, ethylacetate acetone, and ethanol",soluble
same,solubility in water,[2]; water,practically insoluble in water
